US10463593B2, “Lupin peptide extracts and skin firmness” (LABORATOIRES EXPANSCIENCE, priority 2014, dated 2019)

Legend:
[1] = system: proteins of the extracellular matrix (chiefly collagens); assay: Non-enzymatic glycation: incorporation of [3H]-glucose in extracellular matrix proteins deposited by dermal fibroblasts; format: biochemical, human; conditions: 1 mg/ml
Experimental: The non-enzymatic insertion of AGEs in synthesised collagen fibres deposited by human dermal fibroblasts cultured in vitro was examined. A radioactive detection method was used that was based on the incorporation of tritiated glucose in the proteins of the extracellular matrix.
Normal human dermal fibroblasts were cultured in the presence of vitamin C to stimulate the synthesis of collagen. The cells then underwent different operations (freezing/thawing/heating) to inactivate all enzymatic activity.
The matrix layers thus obtained were treated in the presence of the above-described lupin peptide extract at 0.2 and 2%, aminoguanidine HCl at 1 mg/ml (control), 0.2% glucose and [^3H]-glucose radioactive marker for 15 days at 37° C., in the absence of oxygen (rapid re-oxygenation was performed after 7 treatment days).
After incubation, the proteins of the extracellular matrix (chiefly collagens) were extracted using a chaotropic buffer, precipitated with trichloroacetic acid and collected on filters. The radioactivity incorporated in the ECM fibres was measured by liquid scintillation.
The results were analysed statistically using one-factor analysis of variance followed by a Dunnett test, and are given in the Table below: […]

[2] = system: “aged” dermal equivalents seeded with senescent fibroblasts; assay: Contraction of “aged” dermal equivalents (surface area); format: cell-based; conditions: 10 ng/ml; for % “aged” control: area relative to “aged” control; for Area in mm^2 (mean ± SEM): “aged” DEs
Experimental: A model of dermal equivalents containing fibroblasts allows evaluation of the quality of interactions between fibroblasts and collagen fibres. The free contraction/retraction of these dermal equivalents results from the dynamic activity of the cells which apply tensile forces on the collagen network.
The effect of lupin peptide extract on the contraction of dermal equivalents was evaluated. To induce a condition of fibroblast loss of contractile forces, the dermal equivalents were seeded with senescent so-called “aged” fibroblasts (obtained by successive passaging in accordance with the Hayflick model).
“Aged” or normal dermal equivalents were prepared by mixing the fibroblasts (at passage 8 for normal dermal equivalents or at passage 17 for “aged” dermal equivalents) with a collagen solution.
After full gelling, the dermal equivalents were treated with TGFβ at 10 ng/ml (control) or 0.1% lupin peptide extract and incubated for 4 days.
The dermal equivalents were photographed at D1, D3 and D4 to measure their surface area for determination of contraction.

| Molecule | Incorporation [^3H]-glucose (cpm) ([1]; 15 days at 37° C., control 5527 ± 464) | Inhibition of glycation ([1]; versus control, p < 0.001) | Contraction of “aged” DEs (in words) ([2]; significant after a treatment time of 4 days) | % “aged” control ([2]; D1) | Area in mm^2 (mean ± SEM) ([2]; D1) | % “aged” control ([2]; D3) | Area in mm^2 (mean ± SEM) ([2]; D3) | % “aged” control ([2]; D4, p < 0.05) | Area in mm^2 (mean ± SEM) ([2]; D4) |
| --- | --- | --- | --- | --- | --- | --- | --- | --- | --- |
| Cl.N=C(N)NN [Aminoguanidine, aminoguanidine HCl] | 1219 ± 92 cpm | −78% p < 0.001 |  |  |  |  |  |  |  |
| TGFβ |  |  | stimulates the contraction of “aged” DEs | 94% | 264.6 ± 5.5 mm^2 | 95% | 285.9 ± 6.7 mm^2 | 85 (p < 0.05) % | 201.3 ± 8.4 mm^2 |
